Assay results as given in patent publication US6451544B2, “Identification of agents that protect against inflammatory injury to neurons” (Baylor College of Medicine, priority 1996, dated 2002).
Entries after “also recorded” stand apart in the source; their conditions may differ. Peptide text beside a SMILES is read from it.

Key:
[1] = test system: rat microglia stimulated with Aβ1-42; human microglia stimulated with fraction S5; assay: Drug blockade of Aβ induced neuron killing by rat and human microglia; format: cell-based; settings: vitamin E 100 μM, catalase 25 units/ml, glutathione 100 μM, L-NIO 10 μM, DPI 300 nM, glutamate antagonists 10 μM
Excerpt: A number of cytotoxic factors have been reported to participate in Aβ neurotoxicity, including radicals (Behl et al., 1994), nitric oxide (Meda et al., 1995), cytokines (Mrak et al., 1995), and NMDA-like molecules (Giulian et al., 1995a).

[2] = format: physicochemical
Procedure: Properties and sources of amyloid peptides. […] Solubility of peptides is described for chemically-defined culture media at 37° C.

[3] = test system: HEK cells expressing NMDA1b/2A; assay: NTox exposure of HEK cells expressing NMDA receptors (trypan blue); format: cell-based, human
Excerpt: FIG. 6A) Photomicrograph of trypan blue(+) control HEK cells exposed to NTox.
Presence of neurotoxic activity will be determined by reduction in cell number, changes in biochemical markers such as loss of cell metabolic function, release of intracellular material, penetration of impermeant dyes, such as and not limited to fluorescent nuclear dyes and trypan blue (FIG. 6), reduction of the number of neurons, loss of neurofilament or synaptophysin, release of lactate dehydrogenase, or other evidence of cell injury.

[4] = test system: microglia stimulated by Aβ1-42; assay: In vitro screening of drugs which inactivate microglia stimulated by Aβ1-42; format: cell-based; settings: mixed with Aβ peptides; for prevention of neurotoxic microglia, signal transduction inhibitors: test concentrations 0.01 to 100 μM
Excerpt: Such in vitro assays permit rapid screening of drugs with therapeutic potential for Alzheimer Disease.
Such in vitro assays permit rapid screening of drugs which serve as lead compounds for development of therapeutics for Alzheimer Disease.
Once activated by plaque components, microglia release neurotoxic agents. Although many drugs are known to suppress the immune system outside the brain, it is not known which drugs actually have the ability to inactivative plaque-stimulated microglia within the brain and thus prevent the immune-mediated damage caused by Alzheimer Disease. […] Activated microglia also require intracellular events signaled by signal transducers, to convert the plaque or Aβ complex formation with microglia into cellular events which lead to the production and release of neurotoxins including NTox. […] Thus, the use of the microglia-neuron assay systems allowed identification of specific drug families with value in the treatment of Alzheimer Disease.

neurons = assay: Neuroprotective effects of NTox-like compounds; format: cell-based
[5] = test system: rat hippocampal cultures supplemented with microglia; assay: Neurotoxicity assay: hippocampal neuron cultures supplemented with microglia (induction of neurotoxic microglia); format: cell-based
Excerpt: Rat microglia were isolated from newborn animals using the method of Giulian and Baker, 1986, with recovery of >98% homogenous population monitored by binding the fluorescent probe acetylated low density lipoprotein labeled with 1,1′-dioctadecyl-3,3,3′,3′-tetramethyl-indo-carbocyanine [Dil-ac-LDL]). Amyloid proteins were isolated from AD neocortical gray matter laden with neuritic and core plaques with final separations involving a discontinuous sucrose gradient. […] Cultured neurons prepared from rat hippocampus consisted of process-bearing neurons (10-20% of total cell population) atop a bed of astroglia (>70%) mixed with microglia (5-10%). In order to eliminate microglia, cultures were exposed saporin (a ribosome-inactivating protein) coupled to acetylated LDL (ac-LDL) for 10 pg/ml for 18 hours. […] After 14 days in vitro, cultures (with a final concentration of 0.6% serum) were exposed to test substances in the presence or absence of exogenous microglia for 72 hours. […] Data were expressed as % mean survival expressed in terms of parallel untreated control cultures after scoring at least 8 randomly selected fields for each of 3 coverslips from at least 3 independent experiments. […]

brain neocortex = assay: Microsphere implants in brain neocortex; format: in vivo
Excerpt: FIGS. 7A, B, and C show SpheresAβ1-42 in vivo. Weeks after implantation of large microspheres (250 micron diameter) remain embedded within brain neocortex (FIG. 7A). […] Microglia were visualized by uptake of fluorescent labeled acetylated LDL, Dil-ac-LDL Bar=40 μm, FIG. 7A; 25 μm FIGS. 7B and C.
Data support histological changes.
In vivo binding, activation, and neurotoxicity assays involve infusion of a tagged plaque component coupled to a solid support such as microspheres (FIG. 7) into a mammalian brain. Following infusion of materials, a test compound may be co-injected into the brain intraventricularly or intracranially by cannula with delivery systems including syringes or implanted osmotic pumps. A test compound may also be delivered systemically by intraperitoneal, intravenous, intra-arterial, nasal, or oral routes. Evidence of immune activation of the brain by a plaque component may be monitored using histological, biochemical, or molecular methods such as quantitative reverse transcriptase polymerase chain reaction method to identify cell markers of immune responses including surface proteins, enzymes, or cytokines (FIG. 8). The production of neurotoxic activity may be assayed by histochemical (FIG. 7) or biochemical to identify cell markers of immune responses including injury or destruction of neurons. […]

rat microglia = assay: Binding of Aβ peptide-coupled fluorescent microspheres to microglia; settings: 1 micron fluorescent microspheres
Procedure: Fluoresbrite carboxylate microspheres (YG 1.0 μm, Polysciences; 0.5 ml of a 2.5% suspension) were washed twice in 0.1 M carbonate buffer (pH 9.6) and three times in 0.02 M sodium phosphate (pH 4.5). Carbodiimide was then added dropwise to a final concentration of 1% and the suspension mixed for 4 hours at room temperature. Following 3 more washes in 0.02M sodium phosphate, the pellet was resuspended in 1.2 ml of 0.2 M borate buffer (pH 8.5) and 300 μg Aβ (or control peptide) and 5% DMSO added. After overnight mixing at room temperature, the microspheres were blocked by 1 M glycine (pH 8.0) for 30 minutes and washed in 10 mg/ml BSA in phosphate buffer.
To delineate further which portions of the Aβ peptide served as a microglial binding site, a variety of synthetic peptides coupled to 1 micron diameter microspheres was next compared.

microglia = assay: SpheresAβ1-42 binding to microglia; set-up: species or system rat; settings: for SpheresAβ1-42 binding to microglia in presence of GAGs or scavenger receptor ligands: heparin sulfate 50 μg/ml, dextran sulfate 500 μg/ml, ac-LDL 200 μg/ml
Procedure: (§1) Isolated microglia (1000 per mm^2 ) were placed atop 16 mm glass coverslips in 24-well culture plates. Each well then received 250,000 SpheresAβ1-42 or Spheresmal-BSA in the presence or absence of Aβ peptides, GAGs, or scavenger receptor ligands. Binding assays were carried out at 37° C. for 4 hours after which coverslips were dipped 10 times in phosphate buffer and fixed with 4% buffered paraformaldehyde. Microsphere adherence to cells was scored at 200 magnification with phase/fluorescence microscopy. Data, expressed as % inhibition of sphere binding, was calculated from total number of spheres per field noted for control cultures receiving spheres only. Values are based upon at least 3 coverslips from 2 independent experiments. Fluoresbrite carboxylate YG microspheres (1.0 micron diameters; 0.5 ml of a 2.5% suspension) were activated with 1% carbodiimide for 4 hr at room temperature. Washed spheres were resuspended in 0.2 M borate buffer (pH 8.5) in the presence of 300 μg Aβ or 400 μg BSA in 6% DMSO. After overnight mixing at room temperature, the spheres were washed extensively and blocked by 1 M glycine (pH 8.0) for 30 minutes. Maleylation of coupled BSA was carried out at room temperature by adding 1 M maleic anhdyride in acetonitrile at pH 9.0.

scavenger receptors = assay: Spheresmal-BSA binding to microglia; set-up: species or system rat
Procedure: as §1

[6] = trypsin 5000 units/ml 60 min, heparinase 2 x 0.01 units/ml, chondroitinase ABC 2 x 0.02 units/ml

## NC(CCCP(=O)(O)O)C(=O)O (stereo not drawn) [AP5]
[1]
  protection against microglia-mediated neuron killing: prevented neuronal loss; also recorded: prevented neuron death

## NC(CCCCCP(=O)(O)O)C(=O)O (stereo not drawn) [AP7]
[1]
  protection against microglia-mediated neuron killing: prevented neuronal loss; also recorded: blocked neuron death

## CC(C)C[C@H](NC(=O)[C@H](CCCCN)NC(=O)[C@H](CCC(N)=O)NC(=O)[C@H](Cc1cnc[nH]1)NC(=O)[C@H](Cc1cnc[nH]1)NC(=O)[C@@H](N)C(C)C)C(=O)N[C@H](C(=O)N[C@@H](Cc1ccccc1)C(=O)N[C@@H](Cc1ccccc1)C(=O)N[C@@H](C)C(=O)N[C@@H](CCC(=O)O)C(=O)N[C@@H](CC(=O)O)C(=O)N[C@H](C(=O)NCC(=O)N[C@@H](CO)C(=O)N[C@@H](CC(N)=O)C(=O)N[C@@H](CCCCN)C(=O)O)C(C)C)C(C)C [Aβ12-28]
[2]
  Solubility: soluble

## CC[C@H](C)[C@H](NC(=O)[C@H](C)NC(=O)CNC(=O)[C@H](CCCCN)NC(=O)[C@H](CC(N)=O)NC(=O)[C@H](CO)NC(=O)CNC(=O)[C@@H](NC(=O)[C@H](CC(=O)O)NC(=O)[C@H](CCC(=O)O)NC(=O)[C@H](C)NC(=O)[C@H](Cc1ccccc1)NC(=O)[C@H](Cc1ccccc1)NC(=O)[C@@H](NC(=O)[C@@H](N)CC(C)C)C(C)C)C(C)C)C(=O)N[C@H](C(=O)NCC(=O)N[C@@H](CC(C)C)C(=O)N[C@@H](CCSC)C(=O)N[C@H](C(=O)NCC(=O)NCC(=O)N[C@H](C(=O)N[C@H](C(=O)N[C@H](C(=O)N[C@@H](C)C(=O)O)[C@@H](C)CC)C(C)C)C(C)C)C(C)C)[C@@H](C)CC [Aβ17-42] (H-LVFFAEDVGSNKGAIIGLMVGGVVIA-OH; N-terminus and C-terminus assumed)
[2]
  Solubility: very insoluble

## CC[C@H](C)[C@H](NC(=O)[C@H](C)NC(=O)CNC(=O)[C@H](CCCCN)NC(=O)[C@H](CC(N)=O)NC(=O)[C@H](CO)NC(=O)CN)C(=O)N[C@H](C(=O)NCC(=O)N[C@@H](CC(C)C)C(=O)N[C@@H](CCSC)C(=O)O)[C@@H](C)CC [Aβ25-35] (H-GSNKGAIIGLM-OH; N-terminus and C-terminus assumed)
[2]
  Solubility: soluble

## c1ccc([I+]c2ccccc2)cc1 [DPI, diphenyl iodonium]
[1]
  protection against microglia-mediated neuron killing: no reduction of microglia-mediated neuron killing; also recorded: No protective effects were observed

## N[C@H](CCC(=O)NCS(=O)(=O)O)C(=O)O [GAMS]
[1]
  protection against microglia-mediated neuron killing: did not

## CC(=N)NCCC[C@H](N)C(=O)O.Cl [L-NIO, L-N-5-(1-imin-oethyl)ornithine hydrochloride]
[1]; hydrochloride
  protection against microglia-mediated neuron killing: no reduction of microglia-mediated neuron killing; also recorded: No protective effects were observed

## C[C@]12N[C@H](Cc3ccccc31)c1ccccc12 [MK-801]
[1]
  protection against microglia-mediated neuron killing: prevented neuronal loss
[1]; listed as MK801
  protection against microglia-mediated neuron killing: blocked neuron death
[3]
  blockade of NTox killing effect: could be blocked

## CCN(CC)CCCC(C)Nc1ccnc2cc(Cl)ccc12 (stereo not drawn) [chloroquine]
[4]; test concentrations 0.1 to 10 μM
  prevention of neurotoxic microglia, immuno-suppressive drugs: had a protective effect; also recorded: block neuron killing

## COc1c(C=O)c(O)cc2c1C(=O)c1ccccc1C2=O [damacanthal]
[4]
  prevention of neurotoxic microglia, signal transduction inhibitors: had a protective effect

## O=c1c(-c2ccc(O)cc2)coc2cc(O)cc(O)c12 [genistein]
[4]
  prevention of neurotoxic microglia, signal transduction inhibitors: had a protective effect

## N[C@@H](CCC(=O)N[C@@H](CS)C(=O)NCC(=O)O)C(=O)O [glutathione]
[1]
  protection against microglia-mediated neuron killing: no reduction of microglia-mediated neuron killing; also recorded: did not block microglial killing of neurons

## CC(C(O)c1ccc(O)cc1)N1CCC(Cc2ccccc2)CC1 (stereo not drawn) [ifenprodil]
[1]
  protection against microglia-mediated neuron killing: prevented neuronal loss; also recorded: blocked neuron death

## NCCc1ccc(O)cc1 [tyramine]
neurons; 100 μM quinolinic acid (QUIN)
  protection of neurons against quinolinic acid: protective effect did not occur; also recorded: did not block
neurons; microglia stimulated with Aβ1-42 or isolated NTox applied to neurons
  protection of neurons against NTox / Aβ1-42-stimulated microglia: prevented neuronal injury; also recorded: did not damage neurons in the presence of tyramine

## SpheresAβ1-42: Aβ1-42 coupled to microspheres
[5]; 250,000 microspheres per culture, 100,000 microglia per culture, 72 hour incubation
  capacity to elicit neurotoxic microglia, coupled to microspheres or in solution: induced neuron killing
Brain neocortex; 250 micron spheres, weeks after implantation
  reactive microglia around implanted microspheres: chronically stimulate the presence of reactive cells
Brain neocortex; two weeks after implantation, vs undamaged control tissue or SphereBSA
  increase in scavenger receptor II mRNA in tissue surrounding implant: 5 fold
Rat microglia
  uptake of peptide-coupled microspheres by microglia in culture: rapidly engulfed by cultured microglia

## catalase
[1]
  protection against microglia-mediated neuron killing: no reduction of microglia-mediated neuron killing; also recorded: did not block microglial killing of neurons

## chondroitin sulfate
microglia
  SpheresAβ1-42 binding to microglia in presence of GAGs or scavenger receptor ligands: not similar compounds; also recorded: only heparin sulfate blocked

## dextran sulfate
microglia
  SpheresAβ1-42 binding to microglia in presence of GAGs or scavenger receptor ligands: not similar compounds
microglia; listed as dextm sulfate
  SpheresAβ1-42 binding to microglia in presence of GAGs or scavenger receptor ligands: only heparin sulfate blocked
Scavenger receptors; dextran sulfate 500 μg/ml, ac-LDL 200 μg/ml, Aβ1-16 10 μmole/l
  Spheresmal-BSA binding to microglia in presence of ligands: blocked Spheresmal-BSA binding

## heparin sulfate
microglia
  SpheresAβ1-42 binding to microglia in presence of GAGs or scavenger receptor ligands: reduction of binding; also recorded: blocked SpheresAβ1-42 binding
microglia; listed as heparan sulfate
  SpheresAβ1-42 binding to microglia in presence of GAGs or scavenger receptor ligands: block Aβ binding to microglia

## rodent Aβ1-42: rodent form of Aβ1-42 (DAEFGHDSGFEVRHQKLVFFAEDVGSNKGAIIGLMVGGVVIA; Amyloid-beta protein 42; UniProt P12023 672-713, looked up, fragment)
[5]; peptide in solution, typically 1 μmole/l, 72 hours, microglia 500 per mm^2
  induction of neurotoxic microglia / neuron killing in presence of microglia: does not induce toxicity

## trypsin
microglia; [6]
  SpheresAβ1-42 binding after enzymatic pre-treatment of microglia: reduced
Scavenger receptors; [6]
  Spheresmal-BSA binding after enzymatic pre-treatment of microglia: reduced

## vitamin E
[1]
  protection against microglia-mediated neuron killing: no reduction of microglia-mediated neuron killing; also recorded: did not block microglial killing of neurons
